For 35 molecules, IC50 results are on record in patent publication US10035777B2, “Heterocyclic kinase inhibitors” (priority 2014, dated 2018).

For one assay, the target named is GST-Xa-hAAK1 (Homo sapiens (Human), UniProt Q2M2I8). Kind of assay: biochemical.
Chain of GST-Xa-hAAK1 (Q2M2I8 whole entry): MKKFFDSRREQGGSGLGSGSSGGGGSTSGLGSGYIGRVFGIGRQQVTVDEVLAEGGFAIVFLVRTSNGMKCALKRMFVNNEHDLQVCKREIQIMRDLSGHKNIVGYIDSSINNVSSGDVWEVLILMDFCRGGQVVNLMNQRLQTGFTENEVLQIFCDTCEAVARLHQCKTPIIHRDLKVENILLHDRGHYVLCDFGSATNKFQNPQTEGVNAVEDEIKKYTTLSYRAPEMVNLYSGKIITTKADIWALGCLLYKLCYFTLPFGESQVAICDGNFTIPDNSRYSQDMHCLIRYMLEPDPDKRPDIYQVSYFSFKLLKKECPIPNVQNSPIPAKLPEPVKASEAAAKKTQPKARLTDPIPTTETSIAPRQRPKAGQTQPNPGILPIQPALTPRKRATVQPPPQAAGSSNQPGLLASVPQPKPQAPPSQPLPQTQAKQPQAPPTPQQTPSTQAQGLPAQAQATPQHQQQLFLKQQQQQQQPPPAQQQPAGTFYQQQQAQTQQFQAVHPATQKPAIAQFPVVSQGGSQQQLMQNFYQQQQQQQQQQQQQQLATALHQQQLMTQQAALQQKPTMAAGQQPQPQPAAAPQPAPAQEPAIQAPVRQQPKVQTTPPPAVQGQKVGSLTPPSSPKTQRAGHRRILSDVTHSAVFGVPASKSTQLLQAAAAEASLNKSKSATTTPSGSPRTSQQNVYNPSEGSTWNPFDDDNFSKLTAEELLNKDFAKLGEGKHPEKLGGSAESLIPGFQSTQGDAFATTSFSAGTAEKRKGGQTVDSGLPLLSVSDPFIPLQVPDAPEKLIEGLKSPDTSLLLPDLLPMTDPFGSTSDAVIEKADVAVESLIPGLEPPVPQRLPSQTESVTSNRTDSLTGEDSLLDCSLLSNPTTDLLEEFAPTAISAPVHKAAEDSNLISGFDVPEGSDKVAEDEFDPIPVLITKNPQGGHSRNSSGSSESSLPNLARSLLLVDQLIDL
Details: not given
The protocol: The assays were performed in U-bottom 384-well plates. […] The reactions were initiated by the combination of bacterially expressed, GST-Xa-hAAK1 with substrates and test compounds. The reactions were incubated at room temperature for 3 hours and terminated by adding 60 μl of 35 mM EDTA buffer to each sample. The reactions were analyzed on the Caliper LabChip 3000 (Caliper, Hopkinton, Mass.) by electrophoretic separation of the fluorescent substrate and phosphorylated product. […] Compounds were dissolved at 10 mM in dimethylsulfoxide (DMSO) and evaluated at eleven concentrations. IC50 values were derived by non-linear regression analysis.
Regarding `CC(C)C[C@@H](NC(=O)C(F)(F)F)c1nc2cc(-c3ccncc3)ccc2[nH]1` [Example 80, (R)-2,2,2-trifluoro-N-(3-methyl-1-(5-(pyridin-4-yl)-1H-benzo[d]imidazol-2-yl)butyl)acetamide], the IC50 was 697 nM.
The same measure, in the same setting: for `CC(C)CC(CN)c1nc2cc(-c3ccncc3)ccc2[nH]1` (centres unmarked) [Example 67, 4-methyl-2-(5-(pyridin-4-yl)-1H-benzo[d]imidazol-2-yl) pentan-1-amine] the value was 49 nM; for `N[C@H](CC1CC1)c1nc2cc(-c3ccncc3)ccc2[nH]1` [Example 70, (R)-2-cyclopropyl-1-(5-(pyridin-4-yl)-1H-benzo[d]imidazol-2-yl) ethanamine], 61 nM.
Still for that read-out and setting: to `Cn1nc(C(C)(C)C)cc1-c1nc2ccc(-c3ccncc3)cc2[nH]1` [Example 50, 2-(3-(tert-butyl)-1-methyl-1H-pyrazol-5-yl)-6-(pyridin-4-yl)-1H-benzo[d]imidazole] belongs 1730 nM.
The same measure, in the same setting: for `CC(C(N)c1nc2ccc(-c3ccncc3)cc2[nH]1)C(F)(F)F` (single isomer, unassigned) [Example 52, 3,3,3-trifluoro-2-methyl-1-(6-(pyridin-4-yl)-1H-benzo[d]imidazol-2-yl)propan-1-amine] the value was 232 nM; for `CC(C)CC(N)c1nc2ccc(-c3ccncc3)cc2s1` (centres unmarked) [Example 98, 3-methyl-1-(6-(pyridin-4-yl)benzo[d]thiazol-2-yl)butan-1-amine], 44 nM.
On to `CC(C)(C)OCc1nc2ccc(-c3ccncc3)cc2[nH]1` [Example 55, 2-(tert-butoxymethyl)-6-(pyridin-4-yl)-1H-benzo[d]imidazole], for which the IC50 stood at 1790 nM.
On the same count and under the same terms, for `CN[C@H](CC(C)C)c1nc2cc(-c3ccnc(NC(C)=O)c3)ccc2[nH]1` [Example 63, (R)-N-(4-(2-(3-methyl-1-(methylamino)butyl)-1H-benzo[d]imidazol-5-yl)pyridin-2-yl)acetamide] the value was 14 nM; for `CNC(CC(C)C)c1nc2cc(-c3ccncc3)c(OC)cc2[nH]1` (centres unmarked) [Example 73, 1-(6-methoxy-5-(pyridin-4-yl)-1H-benzo[d]imidazol-2-yl)-N,3-dimethylbutan-1-amine], 180 nM; for `Cc1noc(C)c1-c1ccc2[nH]c([C@H](N)CC(C)C)nc2c1` [Example 78, (R)-1-(5-(3,5-dimethylisoxazol-4-yl)-1H-benzo[d]imidazol-2-yl)-3-methylbutan-1-amine], 510 nM.
On the same count and under the same terms, to `COc1cc2[nH]c([C@H](N)C3CCCC3)nc2cc1-c1ccncc1` [Example 82, (R)-cyclopentyl(6-methoxy-5-(pyridin-4-yl)-1H-benzo[d]imidazol-2-yl)methanamine] belongs 1800 nM; to `CC(C)N1CC(c2nc3ccc(-c4ccncc4)cc3[nH]2)CC1=O` (centres unmarked) [Example 51, 1-isopropyl-4-(6-(pyridin-4-yl)-1H-benzo[d]imidazol-2-yl)pyrrolidin-2-one], 783 nM.

The same assay, now with this note: ATP 22 μM; GST-Xa-hAAK1 3.5 nM; room temperature for 3 hours; Caliper LabChip 3000; read-out: AAK1 IC50.
Consider `COc1cc2[nH]c(C(C)(N)CC(C)C)nc2cc1-c1cnco1` (centres unmarked) [Example 108, 2-(6-methoxy-5-(oxazol-5-yl)-1H-benzo[d]imidazol-2-yl)-4-methylpentan-2-amine], for which the IC50 amounted to 60 nM.
Take `NC(CCC(F)(F)F)c1nc2cc(-c3ccncc3)ccc2o1` (centres unmarked) [Example 93, 4,4,4-trifluoro-1-(5-(pyridin-4-yl)benzo[d]oxazol-2-yl)butan-1-amine]: the IC50 turned out to be 136 nM.
Take `COc1cc(-c2ccc3[nH]c([C@H](N)CC(C)C)nc3c2)c(F)cn1` [Example 20, (R)-1-(5-(5-fluoro-2-methoxypyridin-4-yl)-1H-benzo[d]imidazol-2-yl)-3-methylbutan-1-amine]: the half-inhibitory concentration (IC50) came to 489 nM.
The same measure, in the same setting: to `CC(C)CC(N)c1nc2cc(-c3ccncc3)ccc2o1` (centres unmarked) [Example 83, 3-methyl-1-(5-(pyridin-4-yl)benzo[d]oxazol-2-yl)butan-1-amine] belongs 71 nM; to `COc1cnccc1-c1cc(OC)c2[nH]c([C@H](N)CC(C)C)nc2c1` [Example 23, (R)-1-(7-methoxy-5-(3-methoxypyridin-4-yl)-1H-benzo[d]imidazol-2-yl)-3-methylbutan-1-amine], 553 nM; to `COc1cnccc1-c1ccc2[nH]c([C@H](N)CC(C)C)nc2c1` [Example 11, (R)-1-(5-(3-methoxypyridin-4-yl)-1H-benzo[d]imidazol-2-yl)-3-methylbutan-1-amine], 93 nM.
For the molecule `NC(CCC(F)(F)F)c1nc2ccc(-c3cnco3)cc2[nH]1` (centres unmarked) [Example 105, 4,4,4-trifluoro-1-(6-(oxazol-5-yl)-1H-benzo[d]imidazol-2-yl)butan-1-amine], the IC50 is 150 nM.
Still for that read-out and setting: for `CC(C)C[C@H](N)c1nc2ccc(-c3ccncc3)cc2[nH]1` [Example 2, (S)-3-methyl-1-(6-(pyridin-4-yl)-1H-benzo[d]imidazol-2-yl)butan-1-amine] the value was 53 nM; for `CC(C)C[C@@H](N)c1nc2ccc(-c3cnco3)cc2n1CCO` [Example 41, (R)-2-(2-(1-amino-3-methylbutyl)-6-(oxazol-5-yl)-1H-benzo[d]imidazol-1-yl)ethanol], 559 nM; for `CC(C)C[C@@H](N)c1nc2cc(-c3cc(F)nc(F)c3)ccc2[nH]1` [Example 17, (R)-1-(5-(2,6-difluoropyridin-4-yl)-1H-benzo[d]imidazol-2-yl)-3-methylbutan-1-amine], 3940 nM.
The same measure, in the same setting: for `CC(C)CCc1nc2ccc(-c3ccncc3)cc2o1` [Example 85, 2-isopentyl-6-(pyridin-4-yl)benzo[d]oxazole] the value was 833 nM; for `CC(C)CC(N)c1nc2ccc(-c3ccncc3)cc2o1` (centres unmarked) [Example 84, 3-methyl-1-(6-(pyridin-4-yl)benzo[d]oxazol-2-yl)butan-1-amine], 438 nM.
For `COc1cnccc1-c1ccc2oc(C(N)CC(C)C)nc2c1` (centres unmarked) [Example 94, 1-(5-(3-methoxypyridin-4-yl)benzo[d]oxazol-2-yl)-3-methylbutan-1-amine], the 50% inhibitory concentration (IC50) came to 294 nM.
Still for that read-out and setting: for `CC(C)CC(N)c1nc2cc(-c3ccncc3)ccc2s1` (centres unmarked) [Example 95, 3-methyl-1-(5-(pyridin-4-yl)benzo[d]thiazol-2-yl)butan-1-amine] the value was 100 nM; for `COc1cc(-c2ccc3[nH]c(CCC(C)C)nc3c2)ccn1` [Example 57, 2-isopentyl-5-(2-methoxypyridin-4-yl)-1H-benzo[d]imidazole], 1550 nM; for `COCCN[C@H](CC(C)C)c1nc2cc(-c3cnco3)ccc2[nH]1` [Example 102, (R)-N-(2-methoxyethyl)-3-methyl-1-(5-(oxazol-5-yl)-1H-benzo[d]imidazol-2-yl)butan-1-amine], 680 nM.
On the same count and under the same terms, for `NC(CC(C(F)(F)F)C(F)(F)F)c1nc2ccc(-c3cnco3)cc2[nH]1` (centres unmarked) [Example 104, 4,4,4-trifluoro-1-(6-(oxazol-5-yl)-1H-benzo[d]imidazol-2-yl)-3-(trifluoromethyl)butan-1-amine] the value was 381 nM.
The same measure, in the same setting: to `CC(C)CCc1nc2ccc(-c3ccncc3)cc2[nH]1` [Example 106, 2-isopentyl-6-(pyridin-4-yl)-1H-benzo[d]imidazole] belongs 115 nM; to `CNc1cc(-c2ccc3[nH]c([C@@H](CC(C)C)NC)nc3c2)ccn1` [Example 61, (R)-N-methyl-4-(2-(3-methyl-1-(methylamino)butyl)-1H-benzo[d]imidazol-5-yl) pyridin-2-amine], 8 nM; to `CC(C)C[C@@H](N)c1nc2cc(-c3ncnc4[nH]ccc34)ccc2[nH]1` [Example 8, (R)-1-(5-(7H-pyrrolo[2,3-d]pyrimidin-4-yl)-1H-benzo[d]imidazol-2-yl)-3-methylbutan-1-amine], 4 nM.
On to `CC(C)C[C@@H](N)c1nc2ccc(-c3ccncc3)cc2n1CCO` [Example 40, (R)-2-(2-(1-amino-3-methylbutyl)-6-(pyridin-4-yl)-1H-benzo[d]imidazol-1-yl)ethanol], for which the IC50 was 271 nM.

Staying with this assay, now noted: read-out: AAK1 IC50.
In the case of `CC(C)C[C@@H](N)c1nc2cc(F)c(-c3cnco3)cc2[nH]1` [Example 31, (R)-1-(5-fluoro-6-(oxazol-5-yl)-1H-benzo[d]imidazol-2-yl)-3-methylbutan-1-amine], the IC50 amounted to 32 nM.
On the same count and under the same terms, for `CC(C)C[C@@H](NCC(F)(F)F)c1nc2cc(-c3ccncc3)ccc2[nH]1` [Example 66, 3-methyl-1-(5-(pyridin-4-yl)-1H-benzo[d]imidazol-2-yl)-N-(2,2,2-trifluoroethyl)butan-1-amine] the value was 45 nM.

The IC50 is the midpoint of a concentration-inhibition curve.
